Non-standard residues stand in square brackets, D forms with d. Residues, ends and D or L forms follow the SMILES beside them. dPhe(4-Cl) = N[C@H](Cc1ccc(Cl)cc1)C(=O)O; d2Nal = N[C@H](Cc1ccc2ccccc2c1)C(=O)O; dCit = NC(=O)NCCC[C@@H](N)C(=O)O; d3Pal = N[C@H](Cc1cccnc1)C(=O)O
Tests used:
[1] = comparison with existing therapies; cited from earlier work
myoma = experiment: Hysteroscopic and laparoscopic myoma resection after cetrorelix therapy; type: in vivo, human; conditions: 2 months after beginning the cetrorelix therapy
Procedure: Treatment of a patient with uterine fibrosis, which was operated on. Injection of 60 mg of cetrorelix on days 2 and 28 of the menstrual cycle.

E2 = experiment: Clinical experiment: E2 level during cetrorelix pamoate treatment; type: in vivo, human
Procedure: (§1) Injection of 60 mg of cetrorelix on days 2 and 28 of the menstrual cycle.

[2] = Tolerability of premedication, comparison with existing therapies; type: in vivo, human; conditions: short treatment period of from 7 to 10 days
endometrium = experiment: Clinical experiment: endometrium measured by ultrasonics during cetrorelix pamoate treatment; type: in vivo, human
Procedure: as §1

[3] = Day 14 after 1st injection 60 mg
[4] = Day 21 after 1st injection 60 mg
[5] = Day 28, day of 2nd injection 60 mg

SMILES | side effects / drawbacks of existing therapies [1] | blood loss at hysteroscopic and laparoscopic myoma resection (myoma) | E2 (E2; Day 0, day of 1st injection 60 mg (baseline)) [pg/mL] | E2 (E2; Day 7 after 1st injection 60 mg) [pg/mL] | E2 (E2; [3]) [pg/mL] | E2 (E2; [4]) [pg/mL] | E2 (E2; [5]) [pg/mL] | E2 (E2; Day 42, after 2 injections of 60 mg) [pg/mL] | E2 (E2; Day 55, end of the study) [pg/mL] | E2 (E2; Day of operation (07.05.96)) [pg/mL] | side effects [2] | endometrial growth during the treatment (endometrium; 60 mg on days 2 and 28 of the menstrual cycle, measured by ultrasonics) | Endometrium (endometrium; Day 7 after 1st injection 60 mg, patient with uterine fibrosis) [mm] | Endometrium (endometrium; [3]) | Endometrium (endometrium; [4]) [mm] | Endometrium (endometrium; [5]) | Endometrium (endometrium; Day 42, after 2 injections of 60 mg (Day 0, Day 28)) | Endometrium (endometrium; Day 55, end of the study, after 2 injections of 60 mg) | onset of decrease of the thickness of the endometrial layer (endometrium; after injecting)
C#C[C@]1(O)CC[C@H]2[C@@H]3CCC4=Cc5oncc5C[C@]4(C)[C@H]3CC[C@@]21C [Danazol] | acne, hirsutism and increase in weight | – | – | – | – | – | – | – | – | – | – | – | – | – | – | – | – | – | –
CC(=O)N[C@H](Cc1ccc2ccccc2c1)C(=O)N[C@H](Cc1ccc(Cl)cc1)C(=O)N[C@H](Cc1cccnc1)C(=O)N[C@@H](CO)C(=O)N[C@@H](Cc1ccc(O)cc1)C(=O)N[C@H](CCCNC(N)=O)C(=O)N[C@@H](CC(C)C)C(=O)N[C@@H](CCCNC(=N)N)C(=O)N1CCC[C@H]1C(=O)N[C@H](C)C(N)=O [cetrorelix pamoate] (Ac-[d2Nal][dPhe(4-Cl)][d3Pal]SY[dCit]LRP[dA]-NH2) | – | without any significant blood loss | 25 | < 5 | 17 | 40 | 88 | 25 | 73 | 114 | no side effects | did not exhibit any growth | 2 | flat/even | 3.1 | flat/even | flat/even | flat/even | begins to decrease immediately
